Laboratory results from patent US5215994A, “Angiotenin II antagonizing heterocyclic derivatives” (Fujisawa Pharmaceutical Co., Ltd., priority 1990, dated 1993).

System: contractile response to angiotensin II in excised guinea pig ileum
Test: Inhibition by the antagonist of contractile response to angiotensin II in excised guinea pig ileum
Conditions: excised guinea pig ileum longitudinal strips; angiotensin II 10^-8 g/ml; test compound added 3 minutes prior; atropine present; 37° C.; read-out: IC50 (inhibition of angiotensin II contraction, percentage change to control response)
Experimental: [2] Inhibition by the antagonist of contractile response to angiotensin II in excised guinea pig ileum
Male guinea pigs weighing 300 g to 500 g were sacrificed by decapitation and the ileum were excised. Longitudial strips of the ileum (length: 2 cm) were placed in a 25 ml organ bath containing Tyrode's solution of the following composition (mM): NaCl, 137; KCl, 2.7; CaCl2, 1.8; MgCl2, 1.1; NaH2 PO4, 0.4; NaHCO3, 12; Glucose, 5.6.
The bath was maintained at 37° C. and bubbled with 95% O2 +5% CO2. The strips was stretched with a resting force of 0.5 g, and the isometric contraction were recorded via force development transducer on an ink-writing recorder. The preparation was equilibrated in Tyrode's solution mentioned above for 30 minutes, and then exposed to atropine (3.2×10^-7 g/ml) Five minutes later, the response for angiotensin II (1×10^-8 g/ml) was obtained and the preparation was washed a few times. This procedure was repeated twice. […] The inhibition of the test compound for angiotensin II contraction were expressed as a percentage change to control response, and IC50 (M) was calculated.

IC50: 1.7 nM
Compound: CCCCc1nc2c(C)ccnc2n1Cc1ccc(-n2cc(Br)cc2-c2nnn[nH]2)cc1 [Compound 1, 3-[4-[4-Bromo-2-(1H-tetrazol-5-yl)-1-pyrrolyl]benzyl]-2-butyl-7-methyl-3H-imidazo[4,5-b]pyridine]
